“And” between values parts separate entries of the source, which are not always exact repeats. Identical values can stand only once. Inconclusive results and toxic doses are left out. The calls were made as follows: active = survival T/C of 150% or more; inactive = T/C below 125% in these data.
System: CD2F1 mice, L1210 leukemia ip, survival T/C
Test: NCI In Vivo Anticancer Drug Screen. Data for tumor model L1210 Leukemia (intraperitoneal) in CD2F1 (CDF1) mice
Details: endpoint: mean survival time, higher = longer survival
In short: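 Read-out first: treated-group measurement over vehicle-control measurement, expressed as a ratio. Animals bore a transplanted tumor line and were dosed with compound or vehicle.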

[1] = dose: 100.0 mg/kg/injection, schedule: Q01DX009 (ip), vehicle: saline with Tween-80
[2] = dose: 200.0 mg/kg/injection, schedule: Q01DX009 (ip), vehicle: saline with Tween-80
[3] = dose: 100.0 mg/kg/injection, schedule: Q04DX003 (ip), vehicle: saline
[4] = dose: 200.0 mg/kg/injection, schedule: Q04DX003 (ip), vehicle: saline
[5] = dose: 400.0 mg/kg/injection, schedule: Q04DX003 (ip), vehicle: saline

Measured: T/C

O.[Cl][Pt].[NH-]CC[S-]
inactive: dose: 12.5 mg/kg/injection, schedule: Q04DX003 (ip), vehicle: distilled water + Tween-80 90 % of control | dose: 25.0 mg/kg/injection, schedule: Q04DX003 (ip), vehicle: distilled water + Tween-80 102 % of control | dose: 50.0 mg/kg/injection, schedule: Q04DX003 (ip), vehicle: distilled water + Tween-80 95 % of control | dose: 100.0 mg/kg/injection, schedule: Q04DX003 (ip), vehicle: distilled water + Tween-80 100 % of control

C#CC1(NC(=O)NC(C)(C)C)CCCCC1
inactive: [1] 93 % of control | [2] 86 % of control

NNC(=O)CCCCC(=O)NN
inactive: [3] 97 % of control | [4] 100 % of control | [5] 99 % of control

FC(F)(F)c1ccc2nc(CI)c(CI)nc2c1
inactive: dose: 1.5 mg/kg/injection, schedule: Q01DX009 (ip), vehicle: saline with Tween-80 104 % of control | dose: 3.0 mg/kg/injection, schedule: Q01DX009 (ip), vehicle: saline with Tween-80 110 % of control | dose: 6.0 mg/kg/injection, schedule: Q01DX009 (ip), vehicle: saline with Tween-80 96 % of control | dose: 12.0 mg/kg/injection, schedule: Q01DX009 (ip), vehicle: saline with Tween-80 104 % of control | dose: 24.0 mg/kg/injection, schedule: Q01DX009 (ip), vehicle: saline with Tween-80 88 % of control

CCCCCCC(=O)[O][Hg][c]1ccccc1
inactive: dose: 9.38 mg/kg/injection, schedule: Q01DX001 (ip), vehicle: saline 105 % of control | dose: 18.75 mg/kg/injection, schedule: Q01DX001 (ip), vehicle: saline 100 % of control | dose: 37.5 mg/kg/injection, schedule: Q01DX001 (ip), vehicle: saline 103 % of control

COc1ccc(OC)c(/C=C/c2ccc3ccccc3[n+]2C)c1
inactive: dose: 5.0 mg/kg/injection, schedule: Q01DX009 (ip), vehicle: saline with Tween-80 98 % of control | dose: 10.0 mg/kg/injection, schedule: Q01DX009 (ip), vehicle: saline with Tween-80 88 % of control

c1ccc(CCSc2ncnc3nc[nH]c23)cc1
inactive: dose: 100.0 mg/kg/injection, schedule: Q01DX007 (ip), vehicle: saline 103 % of control | dose: 100.0 mg/kg/injection, schedule: Q01DX009 (ip), vehicle: saline 122 % of control | dose: 100.0 mg/kg/injection, schedule: Q03DX003 (ip), vehicle: saline 96 % of control | [3] 98 % of control | dose: 200.0 mg/kg/injection, schedule: Q01DX007 (ip), vehicle: saline 111 % of control | dose: 200.0 mg/kg/injection, schedule: Q01DX009 (ip), vehicle: saline 113 % of control | dose: 200.0 mg/kg/injection, schedule: Q03DX003 (ip), vehicle: saline 102 % of control | [4] 103 % of control | dose: 400.0 mg/kg/injection, schedule: Q01DX007 (ip), vehicle: saline 120 % of control | dose: 400.0 mg/kg/injection, schedule: Q01DX009 (ip), vehicle: saline 124 % of control | dose: 400.0 mg/kg/injection, schedule: Q03DX003 (ip), vehicle: saline 106 % of control | [5] 106 % of control

O=C(O)CCCCc1ccc([N+](=O)[O-])cc1
inactive: dose: 100.0 mg/kg/injection, schedule: Q04DX002 (ip), vehicle: other 105 % of control | dose: 200.0 mg/kg/injection, schedule: Q04DX002 (ip), vehicle: other 102 % of control | dose: 400.0 mg/kg/injection, schedule: Q04DX002 (ip), vehicle: other 97 % of control

Cc1nc(CCCCCCCC(=O)O)ccc1O
inactive: dose: 100.0 mg/kg/injection, schedule: Q04DX002 (ip), vehicle: saline 94 % of control | dose: 200.0 mg/kg/injection, schedule: Q04DX002 (ip), vehicle: saline 97 % of control | dose: 400.0 mg/kg/injection, schedule: Q04DX002 (ip), vehicle: saline 109 % of control

S=c1nc[nH]c2nc(-c3ccccc3)[nH]c12
inactive: dose: 12.5 mg/kg/injection, schedule: Q01DX005 (ip), vehicle: other 98 % of control | dose: 25.0 mg/kg/injection, schedule: Q01DX005 (ip), vehicle: other 96 % of control | dose: 50.0 mg/kg/injection, schedule: Q01DX005 (ip), vehicle: other 102 % of control | dose: 100.0 mg/kg/injection, schedule: Q01DX005 (ip), vehicle: other 98 % of control | dose: 200.0 mg/kg/injection, schedule: Q01DX005 (ip), vehicle: other 93 % of control

O=C(O)CCC(NC(=O)COc1ccc(Cl)cc1Cl)C(=O)O (configuration not stated)
inactive: dose: 25.0 mg/kg/injection, schedule: Q04DX002 (ip), vehicle: saline with Tween-80 100 % of control | dose: 50.0 mg/kg/injection, schedule: Q04DX002 (ip), vehicle: saline with Tween-80 95 % of control | dose: 100.0 mg/kg/injection, schedule: Q04DX002 (ip), vehicle: saline with Tween-80 100 % of control and 101 % of control | dose: 400.0 mg/kg/injection, schedule: Q04DX002 (ip), vehicle: saline with Tween-80 93 % of control

COC1=CC(=O)C2(C)CC=CCC2C1 (configuration not stated)
inactive: [1] 98 % of control | dose: 100.0 mg/kg/injection, schedule: Q04DX003 (ip), vehicle: saline with Tween-80 92 % of control | [2] 95 % of control | dose: 200.0 mg/kg/injection, schedule: Q04DX003 (ip), vehicle: saline with Tween-80 103 % of control | dose: 400.0 mg/kg/injection, schedule: Q01DX009 (ip), vehicle: saline with Tween-80 95 % of control | dose: 400.0 mg/kg/injection, schedule: Q04DX003 (ip), vehicle: saline with Tween-80 91 % of control
